Assay: Reversal of P-gp-mediated multidrug resistance to vinblastine in human CEM/VLB500 cells after 3 days by resazurin assay

Row | SMILES | EC50 [nM]
1 | O=C(Nc1ccccc1C(=O)N[C@@H]1CCCC[C@@H]1N1CCN(c2ccccc2)CC1)c1cnc2ccccc2c1 (racemic) [rac-cis-N-(2-(2-(4-phenylpiperazin-1-yl)cyclohexylcarbamoyl)phenyl)quinoline-3-carboxamide] | 648
2 | COc1ccc(CCN2CCC[C@@H]2CNC(=O)c2ccccc2NC(=O)c2cnc3ccccc3c2)cc1OC [(R) N-(2-((1-(3,4-dimethoxyphenethyl)pyrrolidin-2-yl)methylcarbamoyl)phenyl)quinoline-3-carboxamide] | 482
3 | COc1ccc(CCN2CCC[C@H]2CNC(=O)c2ccccc2NC(=O)c2cnc3ccccc3c2)cc1OC [(S) N-(2-((1-(3,4-dimethoxyphenethyl)pyrrolidin-2-yl)methylcarbamoyl)phenyl)quinoline-3-carboxamide] | 329

Stronger by EC50, values ahead:

Row | EC50 [nM] | SMILES
4 | 124 | COc1ccc(CN2CCN(c3ccc(NC(=O)c4ccccc4NC(=O)c4cnc5ccccc5c4)cc3)CC2)cc1OC [N-(2-(4-(4-(3,4-dimethoxybenzyl)piperazin-1-yl)phenylcarbamoyl)phenyl)quinoline-3-carboxamide]
5 | 68 | COc1cc2c(cc1OC)CN(CCc1ccc(NC(=O)c3cc(OC)c(OC)cc3NC(=O)c3cnc4ccccc4c3)cc1)CC2
6 | 59 | COc1ccc(CN2CCN(c3ccc(NC(=O)c4cc(OC)c(OC)cc4NC(=O)c4cnc5ccccc5c4)cc3)CC2)cc1OC [N-(2-(4-(4-(3,4-dimethoxybenzyl)piperazin-1-yl)phenylcarbamoyl)-4,5-dimethoxyphenyl)quinoline-3-carboxamide]
